Results reported in US20050175692A1, “Pharmaceutical formulation comprising melatonin” (Neurim Pharmaceuticals (1991) ltd., priority 2002, published 2005).

Tests used:
[1] = tested on: volunteers; test: Driving simulator: highway driving; type: in vivo, human; settings: 2 hours post-dosing
Excerpt: (§1) A battery of performance tests and driving skill tests were given to the patients at pre-selected intervals after the administration of the tablet. These included psychomotor tasks for reaction test, vigilance and co-ordination: ARCI 49, Grooved Pegboard, Rivermead story, picture presentation, simple reaction time, digit vigilance task, choice reaction time, delayed picture recognition, visual tracking, driving simulator: highway driving and wake-EEG.

[2] = tested on: volunteers; test: ARCI 49 (MBG, LSD, PCAG, BG scales); type: in vivo, human
Excerpt: as §1

[3] = tested on: volunteers; test: Grooved Pegboard; type: in vivo, human; settings: 1 and 4 hours post-dosing, compared to baseline, placebo and sustained release melatonin 2 mg
Excerpt: as §1

[4] = tested on: volunteers; test: Wake EEG; type: in vivo, human
Excerpt: as §1

[5] = tested on: volunteers; test: Treatment-emergent adverse events in the psychomotor/driving study; design: species or system human; settings: in vivo
Excerpt: as §1

[6] = single evening tablet; melatonin sustained release 2 mg, zolpidem 10 mg
Protocol: Method. The pharmacokinetics of melatonin (2 mg sustained release formulation), zolpidem (10 mg) and their combination were assessed in 16 volunteers (12 males and 4 females).
Blood samples were withdrawn from the subjects at pre-selected intervals after the administration of the tablets.

[7] = tested on: volunteers; test: Rivermead story (immediate and delayed recall); type: in vivo, human; settings: compared to placebo and sustained release melatonin 2 mg
Excerpt: as §1

[8] = tested on: volunteers; test: Cognitive Drug Research tests (attention, episodic secondary memory, motor co-ordination); type: in vivo, human
Excerpt: as §1

For `Cc1ccc(-c2nc3ccc(C)cn3c2CC(=O)N(C)C)cc1` [Zolpidem, N,N,6-trimethyl-2-p-toyl-imidazo[1,2,-a]pyridine-3-acetamide L-(+)-tartrate (2:1)], the Number of collisions [1] was “increased number of collisions”, the “Sedative effect (increase of the PCAG scale) vs placebo” value ([2]; first 4 hours post-dosing) was “strong significant sedative effect” and the “Time after administration at which PCAG sedative effect reached the maximum” value ([2]; in vivo) was “about 4 hour”. For the same molecule, the “Duration of task execution (ipsi and contra lateral)” value [3] was “significant increase”, the “Alpha activity in driving conditions vs sustained release melatonin alone” value ([4]; driving conditions, not different vs placebo) was “significantly increased” and the “Theta rhythm on frontal leads vs placebo” value ([4]; in vivo) was “increased”. For the same molecule, the “Alpha activity in resting conditions vs placebo” value ([4]; resting conditions) was “decreases in alpha”, the “Incidence of somnolence compared with melatonin alone and placebo” value [5] was “clearly increased” and the “Time to maximum, zolpidem in serum, Mean (SD)” value [6] was 1.8 (1.2) h. The “maximum concentration, zolpidem in serum, Mean (SD)” value [6] was 0.22 (0.11) mcg/ml, the “Memory efficiency, both recalls (immediate and delayed)” value [7] was “decreased” and the “Cognitive effects compared to placebo” value ([8]; dosed alone, melatonin SR 2 mg or zolpidem 10 mg) was “several acute impairments”. The “Time post-dosing by which acute impairments were resolved” value ([8]; zolpidem 10 mg alone vs placebo) was ≤ 12.5 h.
